Test results published in patent US20240092799A1, “MNK INHIBITORS” (Hepagene Therapeutics (HK) Limited, priority 2020, published 2024).
pIC50: −log10 of the molar value.

Biological target: MNK2 (Homo sapiens (Human), UniProt Q9HBH9)
Experiment: MNK Biochemical Enzymatic Assay (ADP-Glo), MNK2 binding assay
Experimental: MNK Biochemical Enzymatic Assay. This protocol establishes the binding assays for MNK1 and MNK2 using ADP-Glo assay. MNK phosphorylates the substrate and converts ATP to ADP, which was detected by Envision and used to reflect the reminding activity of MNK. Reagents and equipment used in the assay are listed below, followed by the protocol.
• a) Add 50 μL compound to 384-well dilution plate • b) Dilute compound 1:3 in succession in DMSO for each column for 10+0 pts (refer to dilution plate map) • c) Transfer 0.1 μL diluted compound solution in each row to 384 assay plate using Echo, each column containing 2 replicates (refer to assay plate map) • d) Add 5 μL enzyme working solution to 384-well assay plate, centrifuge 1000 RPM for 1 min • e) Incubate at 25° C. for 15 min • f) Add 5 μL substrate working solution to initiate reaction • g) Incubate at 25° C. for 60 min • h) Add 10 μL ADP Glo reagent, centrifuge 1000 RPM for 1 min • i) Incubate at 25° C. for 60 min • j) Add 20 μL kinase detection reagent, centrifuge 1000 RPM for 1 min • k) Incubate at 25° C. for 60 min • l) Read on Envision for US LUM as RLU • m) Data analysis: IC50s were determined based on a non-linear regression analysis of data collected.

Chain of MNK2 (Q9HBH9 whole entry): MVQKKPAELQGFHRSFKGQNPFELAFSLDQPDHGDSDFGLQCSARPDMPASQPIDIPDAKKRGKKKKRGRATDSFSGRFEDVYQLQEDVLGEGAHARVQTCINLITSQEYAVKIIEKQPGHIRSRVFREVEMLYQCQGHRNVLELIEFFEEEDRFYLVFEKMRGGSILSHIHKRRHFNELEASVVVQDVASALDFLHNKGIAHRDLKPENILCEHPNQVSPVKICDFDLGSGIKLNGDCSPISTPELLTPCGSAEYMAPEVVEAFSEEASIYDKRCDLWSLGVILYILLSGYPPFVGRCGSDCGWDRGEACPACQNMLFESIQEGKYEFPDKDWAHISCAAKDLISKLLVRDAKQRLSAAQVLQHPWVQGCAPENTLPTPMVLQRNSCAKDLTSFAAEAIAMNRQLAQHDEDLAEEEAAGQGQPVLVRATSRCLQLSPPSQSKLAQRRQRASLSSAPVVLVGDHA

Compound	pIC50
O=C1NC2(CCCCC2)c2cc(Nc3cc(NC4CCOCC4)ncn3)sc21 [Compound XXIV-D, 2′-((6-((tetrahydro-2H-pyran-4-yl)amino)pyrimidin-4-yl)amino)spiro[cyclohexane-1,4′-thieno[2,3-c]pyrrol]-6′(5′H)-one]	6.00 to 7.00
O=C1NC2(CCCCC2)c2cc(Nc3cc(Nc4ccccc4F)ncn3)sc21 [Compound XXIV-E, 2′-((6-((2-fluorophenyl)amino)pyrimidin-4-yl)amino)spiro[cyclohexane-1,4′-thieno[2,3-c]pyrrol]-6′(5′H)-one]	7.00 to 8.00
O=C1NC2(CCCCC2)c2cc(Nc3cc(N[C@@H]4CCCOC4)ncn3)sc21 [Compound XXIV-F, (R)-2′-((6-((tetrahydro-2H-pyran-3-yl)amino)pyrimidin-4-yl)amino)spiro[cyclohexane-1,4′-thieno[2,3-c]pyrrol]-6′(5′H)-one]	7.00 to 8.00
O=C1NC2(CCCCC2)c2cc(Nc3cc(NC4CCCCC4)ncn3)sc21 [Compound XXIV-J, 2′-((6-(cyclohexylamino)pyrimidin-4-yl)amino)spiro[cyclohexane-1,4′-thieno[2,3-c]pyrrol]-6′(5′H)-one]	7.00 to 8.00
Cn1cccc(Nc2cc(Nc3cc4c(s3)C(=O)NC43CCCCC3)ncn2)c1=O [Compound XXIV-L, 2′-((6-((1-methyl-2-oxo-1,2-dihydropyridin-3-yl)amino)pyrimidin-4-yl)amino)spiro[cyclohexane-1,4′-thieno[2,3-c]pyrrol]-6′(5′H)-one]	6.00 to 7.00
O=C1NC2(CCCCC2)c2cc(Nc3cc(N[C@@H]4CCOC4)ncn3)sc21 [Compound XXIV-M, (R)-2′-((6-((tetrahydrofuran-3-yl)amino)pyrimidin-4-yl)amino)spiro[cyclohexane-1,4′-thieno[2,3-c]pyrrol]-6′(5′H)-one]	7.00 to 8.00
Cc1nc(Nc2ccccn2)cc(Nc2cc(C)c3c([n+]2[O-])C2(CCCCC2)NC3=O)n1 [Compound XXIX-AAB, 4′-methyl-2′-((2-methyl-6-(pyridin-2-ylamino)pyrimidin-4-yl)amino)-5′-oxo-5′,6′-dihydrospiro[cyclohexane-1,7′-pyrrolo[3,4-b]pyridine] 1′-oxide]	6.00 to 7.00
Cc1cc(Nc2cc(NC(=O)c3ccccn3)ncn2)[n+]([O-])c2c1C(=O)NC21CCCCC1 [Compound XXIX-AAF, 4′-methyl-5′-oxo-2′-((6-(picolinamido)pyrimidin-4-yl)amino)-5′,6′-dihydrospiro[cyclohexane-1,7′-pyrrolo[3,4-b]pyridine] 1′-oxide]	7.00 to 8.00
COC(=O)C1(Nc2cc(Nc3cc(C)c4c([n+]3[O-])C3(CCCCC3)NC4=O)ncn2)CCOC1 (stereo not drawn) [Compound XXIX-AAG, 2′-((6-((3-(methoxycarbonyl)tetrahydrofuran-3-yl)amino)pyrimidin-4-yl)amino)-4′-methyl-5′-oxo-5′,6′-dihydrospiro[cyclohexane-1,7′-pyrrolo[3,4-b]pyridine] 1′-oxide]	6.00 to 7.00
Cc1cc(Nc2ncnc3[nH]ncc23)[n+]([O-])c2c1C(=O)NC21CCCCC1 [Compound XXIX-AAH, 2′-((1H-pyrazolo[3,4-d]pyrimidin-4-yl)amino)-4′-methyl-5′-oxo-5′,6′-dihydrospiro[cyclohexane-1,7′-pyrrolo[3,4-b]pyridine] 1′-oxide]	7.00 to 8.00
Cc1cc(Nc2cc(Nc3ccnn3C3CCNCC3)ncn2)[n+]([O-])c2c1C(=O)NC21CCCCC1 [Compound XXIX-AAR, 4′-methyl-5′-oxo-2′-((6-((1-(piperidin-4-yl)-1H-pyrazol-5-yl)amino)pyrimidin-4-yl)amino)-5′,6′-dihydrospiro[cyclohexane-1,7′-pyrrolo[3,4-b]pyridine] 1′-oxide]	8.00 to 10.00
Cc1cc(Nc2cc(Nc3ccc(C4=CCOCC4)cn3)ncn2)[n+]([O-])c2c1C(=O)NC21CCCCC1 [Compound XXIX-AAS, 2′-((6-((5-(3,6-dihydro-2H-pyran-4-yl)pyridin-2-yl)amino)pyrimidin-4-yl)amino)-4′-methyl-5′-oxo-5′,6′-dihydrospiro[cyclohexane-1,7′-pyrrolo[3,4-b]pyridine] 1′-oxide]	8.00 to 10.00
Cc1cc(Nc2ncnc3c2CCN3)[n+]([O-])c2c1C(=O)NC21CCCCC1 [Compound XXIX-AB, 2′-((6,7-dihydro-5H-pyrrolo[2,3-d]pyrimidin-4-yl)amino)-4′-methyl-5′-oxo-5′,6′-dihydrospiro[cyclohexane-1,7′-pyrrolo[3,4-b]pyridine] 1′-oxide]	7.00 to 8.00
CC(=O)N1CC(Nc2cc(Nc3cc(C)c4c([n+]3[O-])C3(CCCCC3)NC4=O)ncn2)C1 [Compound XXIX-AC, 2′-((6-((1-acetylazetidin-3-yl)amino)pyrimidin-4-yl)amino)-4′-methyl-5′-oxo-5′,6′-dihydrospiro[cyclohexane-1,7′-pyrrolo[3,4-b]pyridine] 1′-oxide]	7.00 to 8.00
Cc1cc(Nc2cc(Nc3ccccc3F)ncn2)[n+]([O-])c2c1C(=O)NC21CCCCC1 [Compound XXIX-AI, 2′-((6-((2-fluorophenyl)amino)pyrimidin-4-yl)amino)-4′-methyl-5′-oxo-5′,6′-dihydrospiro[cyclohexane-1,7′-pyrrolo[3,4-b]pyridine] 1′-oxide]	7.00 to 8.00
Cc1cc(Nc2cc(Nc3cccnc3)ncn2)[n+]([O-])c2c1C(=O)NC21CCCCC1 [Compound XXIX-AJ, 4′-methyl-5′-oxo-2′-((6-(pyridin-3-ylamino)pyrimidin-4-yl)amino)-5′,6′-dihydrospiro[cyclohexane-1,7′-pyrrolo[3,4-b]pyridine] 1′-oxide]	7.00 to 8.00
Cc1cc(Nc2cc(Nc3ccncc3)ncn2)[n+]([O-])c2c1C(=O)NC21CCCCC1 [Compound XXIX-AK, 4′-methyl-5′-oxo-2′-{[6-(pyridin-4-ylamino)pyrimidin-4-yl]amino}-6′H-Spiro[cyclohexane-1,7′-pyrrolo[3,4-b]pyridin]-1′-ium-1′-olate]	7.00 to 8.00
Cc1cc(Nc2ncnc(Nc3ccccn3)c2C)[n+]([O-])c2c1C(=O)NC21CCCCC1 [Compound XXIX-AN, 4′-methyl-2′-((5-methyl-6-(pyridin-2-ylamino)pyrimidin-4-yl)amino)-5′-oxo-5′,6′-dihydrospiro[cyclohexane-1,7′-pyrrolo[3,4-b]pyridine] 1′-oxide]	< 6.00
Cc1cc(Nc2cc(NC(=O)N3CCCC3)ncn2)[n+]([O-])c2c1C(=O)NC21CCCCC1 [Compound XXIX-AQ, 4′-methyl-5′-oxo-2′-((6-(pyrrolidine-1-carboxamido)pyrimidin-4-yl)amino)-5′,6′-dihydrospiro[cyclohexane-1,7′-pyrrolo[3,4-b]pyridine] 1′-oxide]	7.00 to 8.00
Cc1cc(Nc2cc(NC3CCS(=O)(=O)C3)ncn2)[n+]([O-])c2c1C(=O)NC21CCCCC1 (stereo not drawn) [Compound XXIX-AR, 2′-((6-((1,1-dioxidotetrahydrothiophen-3-yl)amino)pyrimidin-4-yl)amino)-4′-methyl-5′-oxo-5′,6′-dihydrospiro[cyclohexane-1,7′-pyrrolo[3,4-b]pyridine] 1′-oxide]	6.00 to 7.00
Cc1cc(Nc2cc(NCC3CCOC3)ncn2)[n+]([O-])c2c1C(=O)NC21CCCCC1 (stereo not drawn) [Compound XXIX-AV, 4′-methyl-5′-oxo-2′-((6-(((tetrahydrofuran-3-yl)methyl)amino)pyrimidin-4-yl)amino)-5′,6′-dihydrospiro[cyclohexane-1,7′-pyrrolo[3,4-b]pyridine] 1′-oxide]	7.00 to 8.00
Cc1cc(Nc2cc(N[C@@H]3CCOC3)ncn2)[n+]([O-])c2c1C(=O)NC21CCCCC1 [Compound XXIX-AX, (R)-4′-methyl-5′-oxo-2′-((6-((tetrahydrofuran-3-yl)amino)pyrimidin-4-yl)amino)-5′,6′-dihydrospiro[cyclohexane-1,7′-pyrrolo[3,4-b]pyridine] 1′-oxide]	7.00 to 8.00
Cc1nc(Nc2cc(C)c3c([n+]2[O-])C2(CCCCC2)NC3=O)cc(N[C@H]2CCOC2)n1 [Compound XXIX-AY, (S)-4′-methyl-2′-((2-methyl-6-((tetrahydrofuran-3-yl)amino)pyrimidin-4-yl)amino)-5′-oxo-5′,6′-dihydrospiro[cyclohexane-1,7′-pyrrolo[3,4-b]pyridine] 1′-oxide]	7.00 to 8.00
Cc1cccnc1Nc1cc(Nc2cc(C)c3c([n+]2[O-])C2(CCCCC2)NC3=O)ncn1 [Compound XXIX-AZ, 4′-methyl-2′-((6-((3-methylpyridin-2-yl)amino)pyrimidin-4-yl)amino)-5′-oxo-5′,6′-dihydrospiro[cyclohexane-1,7′-pyrrolo[3,4-b]pyridine] 1′-oxide]	7.00 to 8.00
COCCNc1cc(Nc2cc(C)c3c([n+]2[O-])C2(CCCCC2)NC3=O)ncn1 [Compound XXIX-B, 2′-((6-((2-methoxyethyl)amino)pyrimidin-4-yl)amino)-4′-methyl-5′-oxo-5′,6′-dihydrospiro[cyclohexane-1,7′-pyrrolo[3,4-b]pyridine] 1′-oxide]	7.00 to 8.00
COCCCNc1cc(Nc2cc(C)c3c([n+]2[O-])C2(CCCCC2)NC3=O)ncn1 [Compound XXIX-C, 2′-((6-((3-methoxypropyl)amino)pyrimidin-4-yl)amino)-4′-methyl-5′-oxo-5′,6′-dihydrospiro[cyclohexane-1,7′-pyrrolo[3,4-b]pyridine] 1′-oxide]	7.00 to 8.00
Cc1cc(Nc2cc(N[C@H]3CCCOC3)ncn2)[n+]([O-])c2c1C(=O)NC21CCCCC1 [Compound XXIX-E, (S)-4′-methyl-5′-oxo-2′-((6-((tetrahydro-2H-pyran-3-yl)amino)pyrimidin-4-yl)amino)-5′,6′-dihydrospiro[cyclohexane-1,7′-pyrrolo[3,4-b]pyridine] 1′-oxide]	7.00 to 8.00
